Patent US11197856B2, “Bicyclic compounds and methods for their use in treating autism” (priority 2013, dated 2021)

What was measured:
[1] = test system: genetic markers related to neuroplasticity; assay: PBBI in rats: neuroplasticity mRNA arrays; type: in vivo
Source text: (§1) The unilateral frontal PBBI model, which mimics the ballistic dynamics of a bullet or fragment wound to the head (Williams, 2003; Williams, 2006), was induced by stereotactic insertion of a custom probe through the right frontal cortex. A temporary cavity was formed by the rapid inflation/deflation (i.e. <40 msec) of an elastic balloon attached to the end of the probe. The PBBI apparatus consisted of a computer-controlled hydraulic pressure generator (Mitre Corp McLean, Va.), a PBBI probe and a stereotaxic frame equipped with a custom-designed probe holder as previously described (Lu, 2009; Williams, 2003). The injury severity was determined by the size of the balloon under control of the computerized hydraulic pressure. The balloon diameter calibrated to 0.63 cm expansion represented 10% of the total rat brain volume thus expressing a 10% PBBI. All surgeries were done under anaesthesia. Groups tested: Sham+vehicle, PBBI+vehicle, PBBI+cG-2-AllylP (30 mg/kg by oral gavage, 30 min post-injury, and again once daily until endpoint). AU procedures were approved by the Institutional Animal Care and Use Committee of WRAIR. Animals were housed in a facility accredited by the AAALAC.
cG-2-AllylP (or vehicle) was administered to the animals via oral gavage at a dose of 30 mg/kg.
cDNA was generated. From total RNA from individual animals using random primers. cDNA was plated unto a targeted PCR array produced by SA Biosciences and product was detected using SyBr green fluorescence. Ct levels were normalized to beta actin. Injury results were compared to sham to evaluate relative quantities (RQ) (n=6 per group).

[2] = test system: BAX; assay: PBBI in rats: BAX Western blotting; type: in vivo; conditions: 24 hr, 3 and 7 days after PBBI
Source text: as §1, with “AAALAC. […]” for “AAALAC.”
Samples were analysed at 24 hr and 3 and 7 days post-injury for all groups (sham+vehicle, PBBI+vehicle, PBBI+cG-2-AllylP). […]

[3] = test system: MeCP2 deficient mice; assay: Seizure activity, electroencephalograph recordings in MeCP2 deficient mice; type: in vivo
Source text: Electroencephalograph: recordings of wild-type mice and MeCP2 deficient mice treated with either saline or cG-2-AllylP are obtained using methods described in U.S. Pat. No. 7,714,020, incorporated fully by reference.

[4] = test system: Fmr1-K02 mice and wildtype (WT) littermates; assay: Inspection of animals for toxicity in Fragile X studies; type: in vivo; conditions: fmr1-knockout and wild-type mice
Experimental: Experiments were conducted in accordance with the United Kingdom Animals (Scientific Procedures) Act of 1986. Fmr1-K02 mice and wildtype (WT) littermates were generated on a C57BL/6J background and repeatedly backcrossed onto a C57BL/6J background for more than eight generations and send to Chile by the Jackson's laboratory. Mice were grouping housed (4-6 per cage) and all animals were provided with ad libitum food and water unless otherwise stated. Mice were maintained on a 12 h light/dark cycle (lights off 19:00 to 7:00) in a temperature-controlled environment (21±1° C.).
Animals were inspected for differences in coat appearance, whether any piloerection is present, eye condition (runny eyes or porphyria, ptosis) gait appearance, tremor, tail tone, reactivity to handling, etc.

[5] = test system: fmr1-knockout and wild-type animals; assay: Contextual fear conditioning (freezing behavior); type: in vivo, mice
Source text: Fear conditioning to either a cure or a context represents a form of associative learning that has been well used in many species. The dependent measure used in contextual (delay) fear conditioning is a freezing response that takes place following pairing of an unconditioned stimulus (foot shock), with a conditioned stimulus (CS), a particular context and/or such a cue. If in a conditioning context one administers a foot shock that is paired with atone, there will be learning not only to the tone, but also to the context.
Contextual fear conditioning is a bask conditioning procedure. It involves taking an animal and placing it in a novel environment, providing an aversive stimulus, and then removing it. […] Freezing is a response to fear, which has been defined as “absence of movement except for respiration.” This freezing behavior may last from seconds to minutes depending on the strength of the aversive stimulus, the number of presentations, and the degree of learning achieved by the subject.
The device used in this study is depicted in FIG. 27. An unconditioned stimulus (mild shock to the feet) was applied, and the conditioned stimulus was a tone applied along with the shock to the feet. Under these conditions, the animals associate the unconditioned stimulus with both the conditioned stimulus and the context of the stimuli. Animals were tested for […].

[6] = test system: Akt; assay: Phosphorylated AKT by Western blot; type: in vivo, mice; conditions: full brain lysates; fmr1-knockout animals; normalized to GAPDH
Experimental: Phosphorylation levels of ERK1/2 and Akt of full brain lysates were evaluated using Western blots. The mice were sacrificed and the brains removed 12 days after the last injection, and immediately after the last behavioral test. Other studies measured pERK and pAkt in blood lymphocytes. The results of Western analysis were normalized to the amount of GAPDH protein seen in each blot.

[7] = test system: MeCP2 knockout mice; assay: Nocturnal activity measurements; type: in vivo; conditions: MeCP2 knockout mice after 6 weeks; nocturnal infrared beam crossing
Experimental: Spontaneous motor activity is measured by using an infrared beam-activated movement-monitoring chamber (Opto-Varimax-MiniA; Columbus Instruments, Columbus, Ohio). For each experiment, a mouse is placed in the chamber at least 3 h before recordings started. Movement is monitored during the normal 12-h dark cycle (7 p.m. to 7 a.m.). One dark cycle per animal per time point is collected.
MeCP2−/y mice develop Rett-like symptoms beginning at 4-6 weeks of age when they progressively become lethargic, develop gait ataxia and […] (Chen et al., 2001). Baseline locomotor activity is also recorded in mice after 6 weeks by counting nocturnal infrared beam crossing events within a caged area.

C=CC[C@]12CCCN1C(=O)CNC2=O [cG-2-AllylP, (8aS)-Allyl-hexahydropyrrolo[1,2-a]pyrazine-1,4-dione]
Gria 4 mRNA expression ([1]; 24 hr. time point after PBBI): significantly increased Gria 4 | BDNF mRNA expression (trend) ([1]; after PBBI): decreased BDNF | Crem mRNA expression (trend) ([1]; after PBBI): decreased Crem | NTF3 mRNA expression (trend) ([1]; after PBBI): decreased NTF3 | NTF4 mRNA expression (trend) ([1]; after PBBI): decreased NTF4 | Pcdh8 mRNA expression (trend) ([1]; after PBBI): decreased Pcdh8 | Pim1 mRNA expression (trend) ([1]; after PBBI): decreased Pim1 | Ppp3ca mRNA expression (trend) ([1]; after PBBI): increased Ppp3ca | BAX levels [2]: did not significantly alter BAX | motor seizures and non-convulsive seizures [3]: effective in decreasing both motor seizures and non-convulsive seizures | toxicity (coat, piloerection, eyes, gait, tremor, tail tone, reactivity) [4]: No instances of toxicity have been observed | time spent in freezing behavior [5]: substantial and statistically significant increase in the time spent in freezing behavior | phosphorylated AKT [6]: about 0.9 UA units | locomotor activity levels [7]: elevates these levels
